A short description of data set [1]: In vivo pharmacokinetics in rats (IV and PO). Here is the method:
(§1) Compound 1 was evaluated in several in vivo studies to investigate its metabolism and pharmacokinetics.
Male Sprague-Dawley rats (n=2) weighing around 300 g were purchased from Harlon Laboratories (Indianapolis, Ind.) and implanted with catheters in the carotid artery and jugular vein. For intravenous (IV) administration, male Sprague-Dawley rats (n=2) were each administered a single 0.2 mg/kg dose of the test article via a jugular cannula and then blood samples were collected via a carotid artery catheter at 0.033, 0.117, 0.25, 0.5, 1, 2, 4, 7, 12, and 24 hours post-dosing from each animal. For oral (PO) administration, fasted male Sprague-Dawley rats (n=2) were each administered a single 3 mg/kg dose of the test article via oral gavage and then blood samples were collected via a carotid artery catheter at 0.25, 0.5, 1, 2, 4, 7, 12, and 24 hours post-dosing from each animal. Upon sampling, blood was collected into chilled, EDTA-fortified tubes and immediately placed on wet ice. Samples were then centrifuged for 10 minutes at 3500 rcf (at 4° C.) to obtain plasma. The plasma samples were stored at −80° C. until analysis. During the analysis, the samples were thawed on bench at room temperature and 20 μL was transferred to 96-well plate. 120 μL of 50 nM carbamazepine in acetonitrile was added to the plasma sample to precipitate the protein and provide the internal standard. After vortex and centrifugation, 75 μL of supernatant was transferred to another 96-well plate that contained 75 μL of water. 10 μL of the diluted supernatant was injected onto an AB Sciex 4000 or 5500 LC-MS/MS system for quantitation. The detection range for analyte was 0.5 to 5000 ng/mL utilizing a quadratic curve with 1/x^2 weighting. Sciex Analyst 1.4.2 software was used for data acquisition and quantitation. Pharmacokinetic parameters were determined from individual animal data using non-compartmental analysis (Model 201) in WinNonlin (v5.3, Pharsight Corp., Mountain View, Calif.).

The next data set concerns the target T1, P450 1A2 (Homo sapiens, UniProt P05177).
T1 sequence (P05177 1-516): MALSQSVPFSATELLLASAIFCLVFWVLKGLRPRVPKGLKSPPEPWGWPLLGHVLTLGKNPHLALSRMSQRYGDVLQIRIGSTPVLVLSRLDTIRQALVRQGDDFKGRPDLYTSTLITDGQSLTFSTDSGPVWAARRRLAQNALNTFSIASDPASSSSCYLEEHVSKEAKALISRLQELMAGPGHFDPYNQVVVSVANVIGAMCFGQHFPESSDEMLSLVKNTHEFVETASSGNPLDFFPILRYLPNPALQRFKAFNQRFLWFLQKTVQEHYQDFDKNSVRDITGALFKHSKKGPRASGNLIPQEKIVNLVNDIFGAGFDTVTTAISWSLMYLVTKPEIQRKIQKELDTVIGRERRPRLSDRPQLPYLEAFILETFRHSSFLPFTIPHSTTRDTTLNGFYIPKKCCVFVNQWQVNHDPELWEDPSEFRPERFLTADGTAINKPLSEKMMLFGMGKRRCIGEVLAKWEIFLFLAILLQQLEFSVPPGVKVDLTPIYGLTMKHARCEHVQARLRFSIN
As to the kind of experiment: P450 1A2 inhibition. The data set is classed as in vitro ADME. Here is the method:
(§2) Compound 1 was evaluated in several well-known in vitro assays to investigate both metabolism and pharmacokinetics. Bidirectional permeability/efflux was determined in MDCK-MDR1 cells, which originate from transfection of Madin Darby canine kidney (MDCK) cells with the MDR1 gene. These assays were performed according to known methods as generally described in the following references: Conde-Ceide et al. ACS Med. Chem. Lett. 2015, 6, 716-720; Morris et al. J. Med. Chem. 2014, 57, 10192-10197; and Bubser et al. ACS Chem. Neurosci. 2014, 5, 920-942.

Data set [2] deals with 68 primary molecular targets. Description: Eurofins LeadProfilingScreen (binding). To be noted: at 10 μM (binding); 68 targets. An excerpt:
The screen includes 68 primary molecular targets, including several CNS targets recommended by the EMEA to evaluate drug dependence potential.

A further data set relates to MDCK-MDR1 cells. As to the kind of experiment: Bidirectional permeability/efflux in MDCK-MDR1 cells. The data set is classed as in vitro ADME, canine. To be noted: efflux ratio. On the procedure: as §2
In another data set the test system is MDR1. The data set is described as above. To be noted: dog. The data set is classed as in vitro ADME, canine. On the procedure: as §2
A short description of data set [3]: In vivo pharmacokinetics in dogs (IV and PO). Here is the method:
as §1
Dogs (male, Beagle, weighing approximately 8-15 kg, n=2) were dosed intravenously (0.5 mg/kg) via cephalic vein and orally (3 mg/kg) by gavage. Blood samples were collected from the jugular vein via needlestick. Blood samples were obtained at 0.083, 0.25, 0.5, 1, 2, 4, 6, 10, and 24 hours (IV) and 0.25, 0.5, 1, 2, 4, 6, 10, and 24 hours (PO) and plasma harvested for analysis. Sample preparation and bioanalysis was conducted as described above.

The nature of another data set: Human CLint. The data set is classed as in vitro ADME. On the procedure: as §2
Another data set in a line: Human Fu (plasma). Type of data set: in vitro ADME. On the procedure: as §2
A further data set is described as follows: Rat CLint. Type of data set: in vitro ADME. Here is the method:
as §2

Data set [4] is described as follows: Rat brain:plasma distribution. Type of data set: in vivo. Here is the method: as §1

In general, IC50 refers to the concentration that inhibits the measured activity by half. A high value points to weaker potency in that assay. The Papp A→B is how fast a substance crosses the layer from the apical side. Higher therefore signals fast passage. Broadly, the CLint scaled is the capacity of the preparation to metabolise the compound, expressed as a volume cleared per time. A higher CLint scaled goes with faster metabolism. The fraction unbound is the share of the substance not bound to proteins or other matrix. The low end stands for extensive binding, the high end for weak binding. A word on the Kp: it is tissue or fluid exposure divided by exposure in the circulation. Turning to `Cc1nc(C)c2c(n1)sc1c(NCc3ccc(C(C)(C)O)cc3)ncnc12` [Compound 1, 2-(4-(((7,9-Dimethylthieno[2,3-d:4,5-d′]dipyrimidin-4-yl)amino)methyl)phenyl)propan-2-ol], the “Rat oral F” value in [1] (3 mg/kg PO) is given as >100%. Further, the clearance in data set [1] (male, Sprague-Dawley, plasma, rat, IV 0.2 mg/kg, read-out: Rat CLp) is 7.1 mL/min/kg; in data set [3] (male, Beagle, plasma, dog, IV 0.5 mg/kg, read-out: Dog CLp) it was 24 mL/min/kg. Further, the Vd in data set [1] (male, Sprague-Dawley, plasma, rat, IV 0.2 mg/kg, read-out: Rat Vss) came out at 1.1 L/kg; in data set [3] (male, Beagle, plasma, dog, IV 0.5 mg/kg, read-out: Dog Vss) it was 2.3 L/kg. The half-life was 1.9 h in data set [1] (male, Sprague-Dawley, rat, plasma, read-out: Rat Elim. t1/2 (converted)) and 2.4 h in data set [3] (male, Beagle, dog, plasma, read-out: Dog Elim. t1/2 (converted)). Moreover, the IC50 against P450 1A2 turned out to be 23 µM. For the same compound, in data set [2], the “inhibition of each target in the LeadProfilingScreen” value is reported as < 50%. Besides, in the data set on MDCK-MDR1 cells, the “MDCK-MDR1 ER” value is given as 1.5 (Papp A→B:. Further, the Papp A→B in the data set with MDR1 was 46.7 ×10⁻⁶ cm/s. The “Dog oral F” value in data set [3] (3 mg/kg PO) came out at 28%. The CLint scaled is 26 mL/min/kg in the data set “Human CLint” and 78 mL/min/kg in “Rat CLint”. The same compound yielded a fraction unbound in the data set “Human Fu (plasma)” of 0.014. Further, in [4], the Kp was 0.74. Further, in [4] (unbound), the Kp uu is 0.5.
